# Assays:
# E. faecium (16D030) = assay: Growth kinetics (time-kill curves); format: cell-based, Enterococcus faecium; conditions: 50, 100 and 200 μg/ml, 37° C., 24 hrs
# Experimental: (§1) Also preferred is a growth kinetic assay the effect of the compound of interest is assessed in time on growth of bacterial isolates on blood-agar plates, as known by the person skilled in the art. In brief, liquid cultures are inoculated in Mueller-Hinton Broth and incubated at 37° C. o/n. The o/n cultures were used to prepare a 0.05-0.1 McFarland suspension in Mueller Hinton Broth, which are incubated at 37° C. until 0.5 McFarland ([…]). These suspensions are used to inoculate 5 ml pre-warmed Mueller-Hinton Broth with approximately 1.5×10^5 CFU/ml with the appropriate antibiotic compound of interest. Directly after addition of the bacterial suspension a 0.25 ml sample is taken. Further 0.25 ml samples are taken after 1, 3, 6 and 24 hrs, which are added to 2.25 ml physiological salt solution. This suspension is used to prepare plates for CFU determination. The lower limit of detection is 40 CFU/ml. Bacterial suspension without antibiotics is preferably checked for normal growth after 24 hrs. A compound is understood herein as having antibacterial activity if at least 3 log10 reduction of CFU in the growth kinetics assay as passed after 1, 3, 6 or preferably 24 hours. […]
# E. faecium (15A623) = assay: Growth kinetics (time-kill curves); format: cell-based, Enterococcus faecium; conditions: 50, 100 and 200 μg/ml, 37° C., 24 hrs
# Experimental: as §1
# Escherichia coli (CP131) = assay: Antibiotic activity of purified fraction (broth growth inhibition, serial dilution); format: cell-based; conditions: ESBL SHV-3, Gram−, no effect at highest concentration
# Experimental: (§2) Preferably the compound of the invention has antimicrobial or antibiotic activity, more preferably antibacterial activity. Antimicrobial or antibacterial activity can be assessed by a suitable assay known by the person skilled in the art, preferably by a growth inhibition assay as exemplified herein. Preferably growth inhibition is assessed by culturing bacteria are cultured in the presence or absence of the antibacterial compound o/n at 37° C. in Luria Broth (LB). The read-out of the assay is by eye, if the bacteria have visibly grown, the sample is scored as non-inhibitory. If the broth is completely clear, the sample is scored as inhibitory.
# (§3) Bacteria are cultured o/n at 37° C. in Luria Broth (LB). This culture is diluted 100× in fresh LB. This fresh culture is then used to test the filtrate and extract. The filtrate was tested in serial dilutions starting at 2× and further diluted with a factor 2 until 256×. The extract was tested starting at 10× dilution and further diluted with a factor 2 until 1280×. The bacteria with filtrate or extract were incubated o/n at 37° C. The read-out of the assay is by eye, if the bacteria have visibly grown, the sample is scored as non-inhibitory. If the broth is completely clear, the sample is scored as inhibitory.
# (§4) The 95 fractions collected were pooled per 6 and the pooled fractions were dried in a speed-vac o/n. The fraction residues were dissolved in 1 ml 5% DMSO and tested on E. faecium (15A623) in serial dilutions starting at 2×. […] 1 ml of each fraction was dried in a speed-vac o/n and each fraction residue was dissolved in 1 ml 5% DMSO to be tested on E. faecium. […] The fraction was then tested on 19 additional strains of bacteria (Table 3).
# [1] = tested on: Stenotrophomonas maltophilia (20A226), NCCB 100516; assay: as above; format: cell-based; conditions: Gram−, no effect at highest concentration
# Experimental: as §2, §3, §4
# [2] = tested on: Enterococcus faecium(15A623); assay: as above; format: cell-based
# Experimental: as §2, §3, §4
# [3] = tested on: Klebsiella pneumoniae (MR44); assay: as above; format: cell-based; conditions: Gram−, no effect at highest concentration
# Experimental: as §2, §3, §4
# [4] = tested on: Streptococcus pneumoniae (14B186); assay: as above; format: cell-based; conditions: Gram+
# Experimental: as §2, §3, §4
# [5] = tested on: Acinetobacter calcoaceticus (15A600), NCCB 100514; assay: as above; format: cell-based; conditions: Gram−, no effect at highest concentration
# Experimental: as §2, §3, §4
# [6] = tested on: Methicillin-resistant Staphylococcus aureus (MRSA) ST8: USA300 (S1474) FPR3757, NARSA collection NRS482; assay: as above; format: cell-based; conditions: Gram+
# Experimental: as §2, §3, §4
# Escherichia coli (JS203) = assay: as above; format: cell-based; conditions: ESBL CTX-M-1, Gram−, no effect at highest concentration
# Experimental: as §2, §3, §4
# [7] = tested on: Methicillin-sensitive Staphylococcus aureus 476 (S0101), ATCC BAA-1721; assay: as above; format: cell-based; conditions: Gram+
# Experimental: as §2, §3, §4
# [8] = tested on: Klebsiella pneumonia (CP14); assay: as above; format: cell-based; conditions: ESBL TEM-18, Gram−, no effect at highest concentration
# Experimental: as §2, §3, §4
# [9] = tested on: Pseudomonas aeruginosa (04A191), NCCB 100515; assay: as above; format: cell-based; conditions: Gram−, no effect at highest concentration
# Experimental: as §2, §3, §4
# [10] = tested on: Staphylococcus epidermidis (08A1071); assay: as above; format: cell-based; conditions: Gram+
# Experimental: as §2, §3, §4
# Escherichia coli (JS004) = assay: as above; format: cell-based; conditions: ESBL TEM-3, Gram−, no effect at highest concentration
# Experimental: as §2, §3, §4
# [11] = tested on: Listeria monocytogenes (41-4a); assay: as above; format: cell-based; conditions: Gram+
# Experimental: as §2, §3, §4
# [12] = tested on: Enterococcus faecium(16D030); assay: as above; format: cell-based; conditions: Gram+
# Experimental: as §2, §3, §4
# [13] = tested on: Klebsiella pneumonia (JS264); assay: as above; format: cell-based; conditions: ESBL CTX-M-15, Gram−, no effect at highest concentration
# Experimental: as §2, §3, §4
# [14] = tested on: Streptococcus group B (05A396); assay: as above; format: cell-based; conditions: Gram+
# Experimental: as §2, §3, §4
# [15] = tested on: Streptococcus group A (23M092); assay: as above; format: cell-based; conditions: Gram+
# Experimental: as §2, §3, §4
# [16] = tested on: Klebsiella pneumonia (JS006); assay: as above; format: cell-based; conditions: ESBL SHV-18, Gram−, no effect at highest concentration
# Experimental: as §2, §3, §4
# Streptococcus Group B = assay: Growth kinetics (time-kill curves); format: cell-based; conditions: 50, 100 and 200 μg/ml, 37° C., 24 hrs, bactericidal = at least 3 log10 reduction of CFU
# Experimental: (§5) Also preferred is a growth kinetic assay the effect of the compound of interest is assessed in time on growth of bacterial isolates on blood-agar plates, as known by the person skilled in the art. In brief, liquid cultures are inoculated in Mueller-Hinton Broth and incubated at 37° C. o/n. The o/n cultures were used to prepare a 0.05-0.1 McFarland suspension in Mueller Hinton Broth, which are incubated at 37° C. until 0.5 McFarland ([…]). These suspensions are used to inoculate 5 ml pre-warmed Mueller-Hinton Broth with approximately 1.5×10^5 CFU/ml with the appropriate antibiotic compound of interest. Directly after addition of the bacterial suspension a 0.25 ml sample is taken. Further 0.25 ml samples are taken after 1, 3, 6 and 24 hrs, which are added to 2.25 ml physiological salt solution. This suspension is used to prepare plates for CFU determination. The lower limit of detection is 40 CFU/ml. Bacterial suspension without antibiotics is preferably checked for normal growth after 24 hrs. A compound is understood herein as having antibacterial activity if at least 3 log10 reduction of CFU in the growth kinetics assay as passed after 1, 3, 6 or preferably 24 hours.
# (§6) After elucidating the structure, we studied the growth kinetics of several Gram+bacteria in the presence of 50, 100 and 200 μg/ml of the compound of formula (I), in order to determine whether the compound was bacteriostatic or bactericidal. The bacteria were cultured at 37° C. for 24 hrs (with the exception of Streptococcus Pneumoniae which was cultured until 6 hrs) in the presence of the compound and samples were taken for colony counting at 0, 1, 3, 6 and 24 hrs.
# (§7) More specifically, bacterial isolates as indicated below were grown on blood-agar plates. Liquid cultures were inoculated in Mueller-Hinton Broth and incubated at 37° C. o/n. The o/n cultures were used to prepare a 0.05-0.1 McFarland suspension in Mueller Hinton Broth, which was incubated at 37° C. until 0.5 McFarland ([…]). These suspensions were used to inoculate 5 ml pre-warmed Mueller-Hinton Broth with approximately 1.5×10^5 CFU/ml with the appropriate antibiotic and antibiotic concentration. Directly after addition of the bacterial suspension a 0.25 ml sample was taken. Further 0.25 ml samples were taken after 1, 3, 6 and 24 hrs. Samples were added to 2.25 ml physiological salt solution. This suspension was used to prepare plates for CFU determination. The lower limit of detection was 40 CFU/ml. Bacterial suspension without antibiotics was checked for normal growth after 24 hrs. Efficient bactericidal activity is defined as at least 3 log10 reduction of CFU.
# (§8) The bacteria tested were two strains of Enterococcus faecium (FIGS. 2A and 2B), MRSA USA300 (FIG. 2C), MSSA (FIG. 2D), Staphylococcus epidermidis (FIG. 2E), Listeria monocytogenes (FIG. 2F), Streptococcus group A (FIG. 2G), Streptococcus group B (FIG. 2H) and Streptococcus pneumoniae (FIG. 2I).
# Listeria monocytogenes = assay: Growth kinetics (time-kill curves); format: cell-based; conditions: 50, 100 and 200 μg/ml, 37° C., 24 hrs
# Experimental: as §5, §6, §7, §8
# [17] = tested on: Staphylococcus epidermidis; assay: Growth kinetics (time-kill curves); format: cell-based; conditions: 50, 100 and 200 μg/ml, 37° C., 24 hrs
# Experimental: as §5, §6, §7, §8
# Streptococcus Group A = assay: Growth kinetics (time-kill curves); format: cell-based; conditions: 50, 100 and 200 μg/ml, 37° C., 24 hrs
# Experimental: as §5, §6, §7, §8
# Streptococcus pneumoniae = assay: Growth kinetics (time-kill curves); format: cell-based; conditions: 50, 100 and 200 μg/ml, 37° C., cultured until 6 hrs
# Experimental: as §5, §6, §7, §8
# MRSA USA300 = assay: Growth kinetics (time-kill curves); format: cell-based, Staphylococcus aureus; conditions: 50, 100 and 200 μg/ml, 37° C., 24 hrs
# Experimental: as §1
# MSSA = assay: Growth kinetics (time-kill curves); format: cell-based, Staphylococcus aureus; conditions: 50, 100 and 200 μg/ml, 37° C., 24 hrs
# Experimental: as §1
structure (smiles),measurement,setting,value
"CC1CCC(=O)/C=C/C(=O)O1 (stereo not drawn) [compound of formula (I), (E)-8-methyl-7,8-dihydro-2H-oxocine-2,5(6H)-dione]",bacteriostatic or bactericidal (time-kill curves),E. faecium (16D030),bacteriostatic
same,bacteriostatic or bactericidal (time-kill curves),E. faecium (15A623),bacteriostatic
same,Minimal concentration for antibacterial activity,Escherichia coli (CP131),No effect at 1.5 g/l
same,Minimal concentration for antibacterial activity,[1],No effect at 1.5 g/l
same,inhibition of bacterial growth by HPLC fractions,"[2]; E. faecium (15A623), residue in 1 ml 5% DMSO, serial dilutions starting at 2×",inhibited bacterial growth
same,Minimal concentration for antibacterial activity,"[2]; Enterococcus faecium(15A623), Gram+",37.5 mg/1
same,activity against E. faecium (15A623),[2]; compound of formula (I) and hydrogenated derivative at similar concentrations,active
same,Minimal concentration for antibacterial activity,[3],No effect at 1.5 g/l
same,Minimal concentration for antibacterial activity,[4],75.0 mg/1
same,Minimal concentration for antibacterial activity,[5],No effect at 1.5 g/l
same,Minimal concentration for antibacterial activity,[6],18.8 mg/L
same,Minimal concentration for antibacterial activity,Escherichia coli (JS203),No effect at 1.5 g/l
same,Minimal concentration for antibacterial activity,[7],4.69 mg/L
same,Minimal concentration for antibacterial activity,[8],No effect at 1.5 g/l
same,Minimal concentration for antibacterial activity,[9],No effect at 1.5 g/l
same,Minimal concentration for antibacterial activity,[10],18.8 mg/L
same,Minimal concentration for antibacterial activity,Escherichia coli (JS004),No effect at 1.5 g/l
same,Minimal concentration for antibacterial activity,[11],75.0 mg/1
same,Minimal concentration for antibacterial activity,[12],75.0 mg/1
same,Minimal concentration for antibacterial activity,[13],No effect at 1.5 g/l
same,Minimal concentration for antibacterial activity,[14],75.0 mg/1
same,Minimal concentration for antibacterial activity,[15],75.0 mg/1
same,Minimal concentration for antibacterial activity,[16],No effect at 1.5 g/l
same,bacteriostatic or bactericidal (time-kill curves),Streptococcus Group B,bacteriostatic
same,bacteriostatic or bactericidal (time-kill curves),Listeria monocytogenes,bactericidal
same,bacteriostatic or bactericidal (time-kill curves),[17],bactericidal
same,bacteriostatic or bactericidal (time-kill curves),Streptococcus Group A,bactericidal
same,bacteriostatic or bactericidal (time-kill curves),Streptococcus pneumoniae,bactericidal
same,bacteriostatic or bactericidal (time-kill curves),MRSA USA300,bactericidal
same,bacteriostatic or bactericidal (time-kill curves),MSSA,bactericidal
